Laboratory results published in the NIST ThermoML archive (doi:10.1021/acs.jced.6b00786).

Assay: xn = mol fraction of the nth substance listed
Settings: 101 kPa, Liquid, Vibrating tube method

NC=O [formamide] + O
Settings	mass density [kg/m3]
274.15 K, x1 = 0.00244	1001.03
274.15 K, x1 = 0.00515	1002.28
274.15 K, x1 = 0.0086	1003.85
274.15 K, x1 = 0.02032	1009
274.15 K, x1 = 0.03478	1014.99
274.15 K, x1 = 0.04976	1020.81
274.15 K, x1 = 0.06674	1026.93
274.15 K, x1 = 0.08229	1032.24
274.15 K, x1 = 0.1171	1043.06
275.15 K, x1 = 0.00244	1001.06
275.15 K, x1 = 0.00515	1002.29
275.15 K, x1 = 0.0086	1003.84
275.15 K, x1 = 0.02032	1008.93
275.15 K, x1 = 0.03478	1014.85
275.15 K, x1 = 0.04976	1020.62
275.15 K, x1 = 0.06674	1026.67
275.15 K, x1 = 0.08229	1031.93
275.15 K, x1 = 0.1171	1042.67
276.15 K, x1 = 0.00244	1001.07
276.15 K, x1 = 0.00515	1002.28
276.15 K, x1 = 0.0086	1003.81
276.15 K, x1 = 0.02032	1008.85
276.15 K, x1 = 0.03478	1014.7
276.15 K, x1 = 0.04976	1020.4
276.15 K, x1 = 0.06674	1026.42
276.15 K, x1 = 0.08229	1031.63
276.15 K, x1 = 0.1171	1042.28
277.15 K, x1 = 0.00244	1001.06
277.15 K, x1 = 0.00515	1002.26
277.15 K, x1 = 0.0086	1003.77
277.15 K, x1 = 0.02032	1008.75
277.15 K, x1 = 0.03478	1014.54
277.15 K, x1 = 0.04976	1020.19
277.15 K, x1 = 0.06674	1026.14
277.15 K, x1 = 0.08229	1031.3
277.15 K, x1 = 0.1171	1041.88
278.15 K, x1 = 0.00244	1001.04
278.15 K, x1 = 0.00515	1002.23
278.15 K, x1 = 0.0086	1003.72
278.15 K, x1 = 0.02032	1008.64
278.15 K, x1 = 0.03478	1014.37
278.15 K, x1 = 0.04976	1019.96
278.15 K, x1 = 0.06674	1025.86
278.15 K, x1 = 0.08229	1030.99
278.15 K, x1 = 0.1171	1041.47
278.15 K, x1 = 0.1745	1056.3
278.15 K, x1 = 0.2169	1065.71
278.15 K, x1 = 0.2557	1073.39
278.15 K, x1 = 0.3026	1081.73
278.15 K, x1 = 0.351	1089.33
278.15 K, x1 = 0.4027	1096.66
278.15 K, x1 = 0.4487	1102.5
278.15 K, x1 = 0.4886	1107.05
278.15 K, x1 = 0.5601	1114.6
278.15 K, x1 = 0.5916	1117.67
278.15 K, x1 = 0.6674	1124.31
278.15 K, x1 = 0.7066	1127.46
278.15 K, x1 = 0.7495	1130.64
278.15 K, x1 = 0.7931	1133.73
278.15 K, x1 = 0.8601	1138.23
278.15 K, x1 = 0.8996	1140.73
278.15 K, x1 = 0.948	1143.61
278.15 K, x1 = 0.9753	1145.18
278.15 K, x1 = 0.9847	1145.72
278.15 K, x1 = 0.9897	1146.01
278.15 K, x1 = 0.9959	1146.38
